Reference: patent publication US12685719B2, “Treatment of breast cancer with selective androgen receptor modulators and cyclin-dependent kinase 4/6 inhibitors” (UNIVERSITY OF TENNESSEE RESEARCH FOUNDATION, priority 2012, dated 2026)

Legend:
[1] = tested on: MDA-MB-231-AR triple negative breast cancer cells; experiment: MDA-MB-231-AR xenograft in female nude mice; assay type: in vivo; conditions: for body weight: all doses of Formula VIII and Formula IX
Protocol: MDA-MB-231-AR triple negative breast cancer cells (2 million cells/mouse; MDA-MB-231 cells stably transfected with AR using lentivirus) were mixed with matrigel (1:1) and injected subcutaneously into the flanks of intact female nude mice (n=5/group). When the tumors reached 150-200 mm^3, the animals were separated into two groups, one receiving vehicle and the other receiving 30 mg/kg Formula VIII orally. Tumor volume was measured thrice weekly and % tumor growth inhibition (TGI) was calculated. At the end of 35 days of treatment, the animals were sacrificed, tumors excised, weighed, and collected for various analyses. Blood was collected and serum separated for drug concentration measurement.

MR = biological target: T1, MR (Rattus norvegicus, UniProt P22199); experiment: Transcriptional activation (luciferase) in HEK-293 cells, MR; assay type: cell-based
T1 construct: expressed in transfected cells
T1 sequence (P22199 1-981): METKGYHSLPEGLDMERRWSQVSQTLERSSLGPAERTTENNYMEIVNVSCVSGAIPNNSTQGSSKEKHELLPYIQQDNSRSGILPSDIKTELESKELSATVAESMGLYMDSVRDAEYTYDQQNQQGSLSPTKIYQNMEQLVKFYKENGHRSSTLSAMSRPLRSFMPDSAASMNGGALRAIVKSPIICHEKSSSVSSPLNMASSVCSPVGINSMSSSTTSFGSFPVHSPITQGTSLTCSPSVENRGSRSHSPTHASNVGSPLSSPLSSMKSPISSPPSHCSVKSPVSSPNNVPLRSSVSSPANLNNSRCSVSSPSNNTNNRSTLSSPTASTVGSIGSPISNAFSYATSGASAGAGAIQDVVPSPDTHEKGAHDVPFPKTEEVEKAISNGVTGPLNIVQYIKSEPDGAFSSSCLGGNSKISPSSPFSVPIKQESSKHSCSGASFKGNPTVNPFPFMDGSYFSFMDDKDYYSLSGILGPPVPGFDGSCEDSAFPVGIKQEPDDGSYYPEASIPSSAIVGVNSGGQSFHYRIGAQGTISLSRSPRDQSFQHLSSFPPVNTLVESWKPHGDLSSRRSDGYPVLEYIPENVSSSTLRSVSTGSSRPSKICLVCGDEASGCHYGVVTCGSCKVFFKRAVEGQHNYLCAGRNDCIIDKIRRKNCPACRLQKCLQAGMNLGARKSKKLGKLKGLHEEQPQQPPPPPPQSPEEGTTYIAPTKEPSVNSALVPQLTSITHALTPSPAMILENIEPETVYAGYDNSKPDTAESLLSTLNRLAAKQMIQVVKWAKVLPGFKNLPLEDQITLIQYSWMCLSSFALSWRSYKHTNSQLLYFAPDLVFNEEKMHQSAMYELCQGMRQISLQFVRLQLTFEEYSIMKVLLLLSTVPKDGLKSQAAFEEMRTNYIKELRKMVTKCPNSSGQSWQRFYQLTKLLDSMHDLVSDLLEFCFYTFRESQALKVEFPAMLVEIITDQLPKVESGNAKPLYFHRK
Protocol: (§1) Rat GR, MR, PR, ER-α and ER-β were individually cloned into a pCR3.1 vector backbone. Sequencing was performed to verify the absence of any mutations. HEK-293 cells were plated at 90,000 cells per well of a 24 well plate in Dulbecco's Minimal Essential Media supplemented with 5% charcoal-stripped FBS. […] Luciferase assays were performed 48 h after transfection. Transcriptional activation values are represented as firefly luciferase normalized to Renilla luciferase.

ER-β = biological target: T2, ER-β (Rattus norvegicus, UniProt Q62986); experiment: Transcriptional activation (luciferase) in HEK-293 cells, ER-β; assay type: cell-based; set-up: activation of ER-β: dose or concentration left out as unconfirmed
T2 construct: expressed in transfected cells
Protocol: as §1, with “FBS. The cells were transfected using Lipofectamine (Invitrogen, Carlsbad, CA) with […] GRE-LUC for GR, MR and PR and ERE-LUC for ER-α and ER-β, 0.5 ng CMV-LUC (Renilla luciferase) and 12.5-25 ng of the respective expression vector for each receptor.” for “FBS.”

AR = biological target: T3, AR (Homo sapiens, UniProt P10275); experiment: AR transactivation (GRE-LUC luciferase) in MDA-MB-231 cells; assay type: cell-based; conditions: cells transfected with AR and GRE-LUC
T3 construct: expressed in transfected cells; host or cells: MDA-MB-231
Protocol: Though AR transactivation assay was performed in HEK-293 cells, the ability of ligands to function as agonists or antagonists depends on cellular microenvironment. […] The cells were treated 24 h after transfection and luciferase assay performed 48 h after transfection.

[2] = tested on: MDA-MB-231 breast cancer cells stably transfected with AR; experiment: Proliferation of MDA-MB-231 cells stably transfected with AR (Coulter counter); assay type: cell-based; conditions: 6 days
Protocol: MDA-MB-231 cells stably transfected with AR using lentivirus were treated with the indicated ligands for 6 days and the number of cells counted using Coulter counter.

ER-α = biological target: T4, ER-α (Rattus norvegicus, UniProt P06211); experiment: Transcriptional activation (luciferase) in HEK-293 cells, ER-α; assay type: cell-based; set-up: activation of ER-α: dose or concentration left out as unconfirmed
T4 construct: expressed in transfected cells
T4 sequence (P06211 1-600): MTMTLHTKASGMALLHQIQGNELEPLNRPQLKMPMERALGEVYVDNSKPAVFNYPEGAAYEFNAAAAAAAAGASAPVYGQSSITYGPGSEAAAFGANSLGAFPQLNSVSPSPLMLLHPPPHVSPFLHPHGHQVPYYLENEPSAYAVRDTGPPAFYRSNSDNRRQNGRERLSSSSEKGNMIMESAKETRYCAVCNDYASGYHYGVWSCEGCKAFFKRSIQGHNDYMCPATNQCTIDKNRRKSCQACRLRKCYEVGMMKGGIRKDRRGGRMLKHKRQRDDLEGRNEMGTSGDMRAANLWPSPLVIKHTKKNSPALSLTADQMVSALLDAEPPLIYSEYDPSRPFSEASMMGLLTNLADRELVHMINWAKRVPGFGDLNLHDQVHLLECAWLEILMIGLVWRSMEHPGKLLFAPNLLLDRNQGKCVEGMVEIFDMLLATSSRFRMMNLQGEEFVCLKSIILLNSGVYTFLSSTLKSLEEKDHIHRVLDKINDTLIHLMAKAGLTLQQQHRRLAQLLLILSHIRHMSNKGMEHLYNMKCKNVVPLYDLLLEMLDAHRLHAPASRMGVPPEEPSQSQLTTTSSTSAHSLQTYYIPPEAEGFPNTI
Protocol: as §1

[3] = agonist mode, highest tested concentration

T2 sequence (Q62986 whole entry): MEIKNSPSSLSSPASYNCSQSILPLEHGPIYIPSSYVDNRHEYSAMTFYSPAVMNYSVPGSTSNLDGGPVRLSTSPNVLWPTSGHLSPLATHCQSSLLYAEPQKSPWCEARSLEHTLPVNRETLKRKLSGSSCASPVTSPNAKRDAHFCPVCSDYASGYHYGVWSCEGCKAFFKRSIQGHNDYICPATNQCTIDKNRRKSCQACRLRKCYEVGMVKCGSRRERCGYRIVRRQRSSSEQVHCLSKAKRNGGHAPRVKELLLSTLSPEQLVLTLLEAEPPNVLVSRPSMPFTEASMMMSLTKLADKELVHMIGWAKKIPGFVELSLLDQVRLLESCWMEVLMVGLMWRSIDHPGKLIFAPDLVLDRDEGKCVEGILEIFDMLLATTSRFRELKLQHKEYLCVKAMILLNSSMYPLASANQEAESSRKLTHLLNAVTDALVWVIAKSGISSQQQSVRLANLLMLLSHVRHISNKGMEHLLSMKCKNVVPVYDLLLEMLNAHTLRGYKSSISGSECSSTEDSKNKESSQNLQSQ
T3 sequence (P10275 whole entry): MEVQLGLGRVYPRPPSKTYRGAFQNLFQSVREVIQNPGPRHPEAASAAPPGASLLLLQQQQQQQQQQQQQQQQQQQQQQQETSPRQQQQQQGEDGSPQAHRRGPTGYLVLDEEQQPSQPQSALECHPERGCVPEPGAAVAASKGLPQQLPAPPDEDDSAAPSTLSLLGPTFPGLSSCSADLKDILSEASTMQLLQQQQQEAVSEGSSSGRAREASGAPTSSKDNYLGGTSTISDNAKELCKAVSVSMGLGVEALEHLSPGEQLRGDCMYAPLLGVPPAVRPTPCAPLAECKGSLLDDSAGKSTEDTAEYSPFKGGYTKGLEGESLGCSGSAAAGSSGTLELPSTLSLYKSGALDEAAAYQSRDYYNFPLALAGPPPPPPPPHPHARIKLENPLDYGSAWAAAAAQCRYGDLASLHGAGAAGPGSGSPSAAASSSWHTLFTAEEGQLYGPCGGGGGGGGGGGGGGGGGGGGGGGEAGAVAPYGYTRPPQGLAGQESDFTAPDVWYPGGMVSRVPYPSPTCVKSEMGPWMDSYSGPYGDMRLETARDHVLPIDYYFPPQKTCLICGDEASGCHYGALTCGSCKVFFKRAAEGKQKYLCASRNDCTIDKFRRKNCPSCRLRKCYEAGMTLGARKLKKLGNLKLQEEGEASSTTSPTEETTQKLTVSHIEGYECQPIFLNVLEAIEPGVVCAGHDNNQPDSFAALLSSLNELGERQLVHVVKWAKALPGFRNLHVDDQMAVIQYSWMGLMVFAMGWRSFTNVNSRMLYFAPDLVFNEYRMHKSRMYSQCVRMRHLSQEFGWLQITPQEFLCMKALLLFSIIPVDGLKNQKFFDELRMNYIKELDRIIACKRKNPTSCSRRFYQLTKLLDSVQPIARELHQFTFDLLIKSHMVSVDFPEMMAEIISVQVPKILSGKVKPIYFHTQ

Structure (SMILES) | body weight [1] | receptor-mediated transactivation of MR (stimulate or inhibit) (MR) | receptor-mediated transactivation of ERβ (stimulate or inhibit) (ER-β) | AR agonist activity (transactivation) (AR) | proliferation (number of cells) [2] | receptor-mediated transactivation of ERα (stimulate or inhibit) (ER-α) | toxicity / changes in body weight ([1]; 30 mg/kg orally, 35 days) | MR-mediated transactivation (MR; agonist mode, all the tested concentrations) | aldosterone-induced MR-mediated transactivation (MR; antagonist mode) | activation of ER-β (ER-β; [3]) | 17β-estradiol-induced ER-β activity (ER-β; antagonist mode) | activation of ER-α (ER-α; [3]) | 17β-estradiol-induced ER-α activity (ER-α; antagonist mode)
C[C@](O)(COc1ccc(C#N)cc1)C(=O)Nc1ccc(C#N)c(C(F)(F)F)c1 [Formula IX, (S)-N-(4-Cyano-3-(trifluoromethyl)phenyl)-3-(4-cyanophenoxy)-2-hydroxy-2-methylpropanamide] | increased body weight | do not stimulate or inhibit | do not stimulate or inhibit | agonists of AR | inhibited the proliferation | do not stimulate or inhibit |  |  |  |  |  |  | 
C[C@](O)(COc1ccc(C#N)cc1)C(=O)Nc1ccc(C#N)c(Cl)c1 [Formula VIII, (S)-N-(3-chloro-4-cyanophenyl)-3-(4-cyanophenoxy)-2-hydroxy-2-methylpropanamide] | increased body weight | do not stimulate or inhibit | do not stimulate or inhibit | agonists of AR | inhibited the proliferation | do not stimulate or inhibit | without any associated toxicity or changes in body weight | did not induce | failed to alter | failed to activate | failed to alter | failed to activate | failed to alter
